Measured values as given in patent US8193223B2, “1,2,3-triazole derivatives as sigma receptor inhibitors” (Laboratorios Del Dr. Esteve, S.A., priority 2006, dated 2012).

Each molecule was assayed against T1, sigma-1 receptor (Cavia porcellus, UniProt Q60492) (assay: [3H](+)-pentazocine binding assay for the sigma-1 receptor in guinea pig brain membranes). Conditions: compound 0.01 μM, [3H](+)-pentazocine 0.5 nM.
T1 construct: from tissue; host or cells: guinea pig brain membranes
Protocol: Some of the compounds synthesized according to the procedures described above were tested for their activity as sigma-1 inhibitors. The following protocol was followed:
Brain membrane preparation and binding assays for the […] were performed as described (DeHaven-Hudkins et al., 1992) with some modifications. In brief, guinea pig brains were homogenized in 10 vols. (w/v) of Tris-HCl 50 mM 0.32 M sucrose, pH 7.4, with a Kinematica Polytron PT 3000 at 15000 r.p.m. for 30 s. The homogenate was centrifuged at 1000 g for 10 min at 4° C. and the supernatants collected and centrifuged again at 48000 g for 15 min at 4° C. The pellet was resuspended in 10 volumes of Tris-HCl buffer (50 mM, pH 7.4), incubated at 37° C. for 30 min, and centrifuged at 48000 g for 20 min at 4° C. Following this, the pellet was resuspended in fresh Tris-HCl buffer (50 mM, pH 7.4) and stored on ice until use.
Each assay tube contained 10 μL of [^3H](+)-pentazocine (final concentration of 0.5 nM), 900 μL of the tissue suspension to a final assay volume of 1 mL and a final tissue concentration of approximately 30 mg tissue net weight/mL. Non-specific binding was defined by addition of a final concentration of 1 μM haloperidol. All tubes were incubated at 37° C. for 150 min before termination of the reaction by rapid filtration over Schleicher & Schuell GF 3362 glass fibre filters [previously soaked in a solution of 0.5% polyethylenimine for at least 1 h]. Filters were then washed with four times with 4 mL of cold Tris-HCl buffer (50 mM, pH 7.4). Following addition of scintillation cocktail, the samples were allowed to equilibrate overnight. The amount of bound radioactivity was determined by liquid scintillation spectrometry using a Wallac Winspectral 1414 liquid scintillation counter. Protein concentrations were determined by the method of Lowry et al. (1951).

T1 sequence (Q60492 whole entry): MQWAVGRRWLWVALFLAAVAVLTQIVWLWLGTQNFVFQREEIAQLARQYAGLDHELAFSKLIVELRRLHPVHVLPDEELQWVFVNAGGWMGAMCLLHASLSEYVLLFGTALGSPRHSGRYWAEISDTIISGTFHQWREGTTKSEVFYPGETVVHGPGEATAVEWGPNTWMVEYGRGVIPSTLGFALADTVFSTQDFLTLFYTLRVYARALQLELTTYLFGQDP

Q: For `Clc1ccc(-c2nn(CCCN3CCCCCC3)nc2-c2ccccc2)cc1` [compound 6], which “Sigma-1 Inhibition percent (0.01 μM)” value is on record?
A: 36.5

Q: How did the “Sigma-1 Inhibition percent (0.01 μM)” value turn out when `Clc1ccc(-c2nn(CCCCN3CCCCC3)nc2-c2ccccc2)cc1` [compound 10] was run?
A: 26.1

Q: With `Cc1nn(CCCN2CCCCC2)nc1-c1ccccc1` [compound 19] as the molecule, how does the “Sigma-1 Inhibition percent (0.01 μM)” value read?
A: 31.2

Q: With `c1ccc(-c2cnn(CCCN3CCCCC3)n2)cc1` [compound 20] as the molecule, how does the “Sigma-1 Inhibition percent (0.01 μM)” value read?
A: 43.6

Q: `Fc1cc(Br)ccc1-c1cnn(CCCN2CCCCC2)n1` [compound 21] was tested. Which “Sigma-1 Inhibition percent (0.01 μM)” value did it give?
A: 25.8

Same assay, conditions: compound 0.1 μM, [3H](+)-pentazocine 0.5 nM

Q: Which “Sigma-1 Inhibition percent (0.1 μM)” value does the source give for `Clc1ccc(-c2nn(CCCN3CCCCCC3)nc2-c2ccccc2)cc1` [compound 6] here?
A: 52.5

Q: Which “Sigma-1 Inhibition percent (0.1 μM)” value does the source give for `Clc1ccc(-c2nn(CCCCN3CCCCC3)nc2-c2ccccc2)cc1` [compound 10] here?
A: 59.1

Q: With `Cc1nn(CCCN2CCCCC2)nc1-c1ccccc1` [compound 19] as the molecule, how does the “Sigma-1 Inhibition percent (0.1 μM)” value read?
A: 78.5

Q: Which “Sigma-1 Inhibition percent (0.1 μM)” value does the source give for `c1ccc(-c2cnn(CCCN3CCCCC3)n2)cc1` [compound 20] here?
A: 82.2

Q: For `Fc1cc(Br)ccc1-c1cnn(CCCN2CCCCC2)n1` [compound 21], which “Sigma-1 Inhibition percent (0.1 μM)” value is on record?
A: 83.4
